Earlier results in patent publication US20100262098A1, “ABSORBENT ARTICLE WITH ODOUR CONTROL SUBSTANCE” (SCA Hygiene Products AB, priority 2007, published 2010).

Conditions: autoxidation at 100° C.; not treated with antioxidants

Q: With `CCCCCCCC/C=C\CCCCCCCC(=O)O` [Oleic acid] as the molecule, how does the “Relative rate of oxidation” value read?
A: 6

Q: Which “Relative rate of oxidation” value does the source give for `CCCCC/C=C\C/C=C\CCCCCCCC(=O)O` [Linoleic acid] here?
A: 64

Q: With `CCCCCCCCCCCCCCCCCC(=O)O` [Stearic acid] as the molecule, how does the “Relative rate of oxidation” value read?
A: 0.6
